Assay results reported in patent US9381201B2, “Pharmaceutical composition and kit for treating bacterial infections” (priority 2011, dated 2016).

Legend:
[1] = test system: intracellular Mycobacterium tuberculosis; settings: cited from earlier work
Streptococcus pyogenes = Streptococcus pyogenes resistant to penicillin and other antibiotics; cited from earlier work
[2] = test system: gram-positive microorganisms; settings: many gram-positive microorganisms; cited from earlier work
gram-negative bacteria = settings: a large number of gram-negative bacteria; cited from earlier work
[3] = test system: tuberculosis Mycobacterium; settings: cited from earlier work
[4] = test system: Mycobacterium tuberculosis Erdman (ATCC 35801); experiment: anti-tuberculosis activity on a model of mice infected with Mycobacterium tuberculosis (acute tuberculosis infection); settings: Rifalazil 2.5 mg/kg/day intraperitoneally, 3 week administration, BALB/c mice
[5] = in vivo; cited from earlier work

CO[C@H]1/C=C/O[C@@]2(C)Oc3c(C)c(O)c4c(c3C2=O)C2=NC3(CCN(CC(C)C)CC3)NC2=C(NC(=O)/C(C)=C\C=C\[C@H](C)[C@H](O)[C@@H](C)[C@@H](O)[C@@H](C)[C@H](OC(C)=O)[C@@H]1C)C4=O [Rifabutin]
active concentration relative to Rifampicin [1]: 2 times less

CO[C@H]1/C=C/O[C@@]2(C)Oc3c(C)c(O)c4c(O)c(c(/C=N/N5CCN(C)CC5)c(O)c4c3C2=O)NC(=O)/C(C)=C\C=C\[C@H](C)[C@H](O)[C@@H](C)[C@@H](O)[C@@H](C)[C@H](OC(C)=O)[C@@H]1C [Rifampicin]
share of Streptococcus pyogenes sensitive (Streptococcus pyogenes): Over 95%
minimal inhibiting concentration [2]: 1 to 100 ng/mL
minimal inhibiting concentration (gram-negative bacteria): 1000 to 10000 ng/mL
minimal inhibiting concentration [3]: 5 to 500 ng/mL

Rifalazil
Lowering of micobacterium titers in mice lungs in comparison with the control (CMC) on the 31 day [4]: 87 times
half-life of elimination [5]: > 100 h
